Assay results: article PMC8472287, “Betulinic Acid Decorated with Polar Groups and Blue Emitting BODIPY Dye: Synthesis, Cytotoxicity, Cell-Cycle Analysis and Anti-HIV Profiling” (Biomedicines, 2021)
Counter-ions that a name gives are not always drawn. Like-named read-outs stand apart in the source and are kept apart here.

Assays:
K562 = experiment: MTS cytotoxicity assay, K562; assay type: cell-based; settings: Homo sapiens, 72 h, 3-day incubation
Excerpt: (§1) All cells (if not indicated otherwise) were purchased from the American Tissue Culture Collection (ATCC; Manassas, VA, USA). The highly chemosensitive CCRF-CEM line is derived from T lymphoblastic leukaemia, K562 represent cells of chronic myelogenous leukaemia. Colorectal adenocarcinoma HCT116 cell line and its p53 gene knockout counterpart (HCT116p53−/−, Horizon Discovery Ltd., Cambridge, UK) were used as models to assess the impact of p53 deficiency on cell line sensitivity. A549 cells are derived from lung adenocarcinoma and U2OS from human osteosarcoma. CEM-DNR and K562-Tax are well-characterized daunorubicin and paclitaxel-resistant sublines of CCRF-CEM and K562. The CEM-DNR resistant cells overexpress the P-glycoprotein and LRP protein, the K562-Tax overexpress P-glycoprotein but is losing the expression of LRP, which is present at parental K562 cell line. P-glycoprotein belongs to the ABC transporters’ family and is involved in the primary and acquired multidrug resistance phenomenon by the efflux of toxic compounds, LRP protein is involved in the lysosomal degradation. MRC-5 and BJ cell lines were used as a non-tumour control and represent human fibroblasts. The cells were maintained in Nunc/Corning 80 cm^2 plastic tissue culture flasks and cultured in cell culture medium according to ATCC or Horizon recommendations (DMEM/RPMI 1640 with 5 g/L-glucose, 2 mM glutamine, 100 U/mL penicillin, […] streptomycin, 10% fetal calf serum, and NaHCO3).
(§2) To perform the cytotoxicity MTS assay, cell suspensions were prepared and diluted according to the cell type and the expected target cell density (25,000–35,000 cells/mL) based on cell growth characteristics. Cells were added by an automatic pipettor (30 μL) into 384 well microtiter plates. All tested compounds were dissolved in 100% DMSO and four-fold dilutions of the intended test concentration were added in 0.15 μL aliquots at time zero to the microtiter plate wells by the echo-acoustic liquid handler Echo550 (Labcyte, San Jose, CA, USA). The experiments were performed in technical duplicates and at least three biological replicates. The cells were incubated with the tested compounds for 72 h at 37 °C, in a 5% CO2 atmosphere at 99% humidity. At the end of the incubation period, the cells were assayed by using the MTS test. Aliquots (5 µL) of the MTS stock solution were pipetted into each well and incubated for an additional 1–4 h. After this incubation period, the optical density (OD) was measured at 490 nm with an Envision microplate reader (Perkin Elmer, Waltham, Massachusetts, USA). Tumour cell survival (TCS) was calculated using the following equation: TCS = (ODdrug-exposed well/mean ODcontrol wells) × 100%.

A549 = experiment: MTS cytotoxicity assay, A549; assay type: cell-based; settings: Homo sapiens, 72 h, 3-day incubation
Excerpt: as §1, §2

HCT116p53−/− = experiment: MTS cytotoxicity assay, HCT116p53−/−; assay type: cell-based; settings: Homo sapiens, HCT116-p53-null, 72 h, HCT116p53−/− (null p53 gene), 3-day incubation
Excerpt: as §1, §2

BJ = experiment: MTS cytotoxicity assay, BJ; assay type: cell-based; settings: Homo sapiens, 72 h, BJ normal fibroblasts, 3-day incubation
Excerpt: as §1, §2

CCRF-CEM = experiment: MTS cytotoxicity assay, CCRF-CEM; assay type: cell-based; settings: Homo sapiens, 72 h, 3-day incubation
Excerpt: as §1, §2

U2OS = experiment: MTS cytotoxicity assay, U2OS; assay type: cell-based; settings: Homo sapiens, 72 h, 3-day incubation
Excerpt: as §1, §2

K562-Tax = experiment: MTS cytotoxicity assay, K562-Tax; assay type: cell-based; settings: Homo sapiens, 72 h, K562-Tax (paclitaxel-resistant), 3-day incubation
Excerpt: as §1, §2

CEM-DNR = experiment: MTS cytotoxicity assay, CEM-DNR; assay type: cell-based; settings: Homo sapiens, 72 h, CEM-DNR (daunorubicin resistant), 3-day incubation
Excerpt: as §1, §2

HCT116 = experiment: MTS cytotoxicity assay, HCT116; assay type: cell-based; settings: Homo sapiens, HCT-116, 72 h, 3-day incubation
Excerpt: as §1, §2

MRC-5 = experiment: MTS cytotoxicity assay, MRC-5; assay type: cell-based; settings: Homo sapiens, MRC5, 72 h, MRC-5 normal fibroblasts, 3-day incubation
Excerpt: as §1, §2

in vitro = settings: human
[1] = tested on: VSV-G pseudotyped HIV-1 particles; experiment: microbe, parasite or virus in culture; assay type: cell-based; settings: for IC50: read-out: IC50i (50% infection inhibition)
[2] = tested on: CA-SP1 processing of HIV-1 Gag polyprotein; experiment: Western blot of released virions with anti-HIV-1 CA antibody; assay type: cell-based
CCRF-CEM lymphoblasts = experiment: BrU incorporation analysis (RNA synthesis); assay type: cell-based, human; settings: 24 h, 5 × IC50 (high concentration)
[3] = Human immunodeficiency virus 1, HEK293, 48 h

| SMILES | IC50 (K562) | IC50 (A549) | IC50 (HCT116p53−/−) | IC50 (BJ) | IC50 (CCRF-CEM) | IC50 (U2OS) | cytotoxic effect in the cell line panel (in words) (entire cell line panel) | IC50 (K562-Tax) | IC50 (CEM-DNR) | IC50 (HCT116) | IC50 (MRC-5) | IC50 (in vitro) | anti-HIV-1 activity (in words) [1] | IC50 [1, 3] | CA forms identified in released viruses (CA-SP1 processing) [2] | IC50 [1] | RNA synthesis by BrU (in words) (CCRF-CEM lymphoblasts) |
| --- | --- | --- | --- | --- | --- | --- | --- | --- | --- | --- | --- | --- | --- | --- | --- | --- | --- |
| C=C(C)[C@@H]1CC[C@]2(C(=O)O)CC[C@]3(C)[C@H](CC[C@@H]4[C@@]5(C)CC[C@H](OC(=O)CC(C)(C)C(=O)O)C(C)(C)[C@@H]5CC[C@]43C)[C@@H]12 [BT, 3-O-(3,3-dimethylsuccinyl) betulinic acid, reference compound] | 23.6 µM | 23.1 µM | 18.2 µM | > 50 µM | 12.8 µM | 27.6 µM | weak or medium cytotoxic effect | 22 µM | 22.2 µM | 14.2 µM | > 50 µM | – | – | – | – | – | – |
| C=C(C)[C@@H]1CC[C@]2(C(=O)NCCCN=[N+]=[N-])CC[C@]3(C)[C@H](CC[C@@H]4[C@@]5(C)CC[C@H](O)C(C)(C)[C@@H]5CC[C@]43C)[C@@H]12 [Compound 1, (3β)-N-(3-Azidopropyl)-3-hydroxylup-20(29)-ene-28-amide] | > 50 µM | > 50 µM | > 50 µM | > 50 µM | 8.98 µM | 29 µM | activity only against selected cell lines | 10.6 µM | 16.8 µM | > 50 µM | > 50 µM | > 40 µM | did not exhibit any potent anti-HIV-1 activity | > 50 µM | – | – | – |
| C=C(C)[C@@H]1CC[C@]2(C(=O)NCCCN=[N+]=[N-])CC[C@]3(C)[C@H](CC[C@@H]4[C@@]5(C)CC[C@H](OC(=O)CCNC6=C7C=CC=[N+]7[B-](F)(F)n7cccc76)C(C)(C)[C@@H]5CC[C@]43C)[C@@H]12 [Compound 5, (3β)-N-(3-Azidopropyl)-3-[N´-(4,4-difluoro-4-bora-3a,4a-diaza-s-indacene-8-yl)-β-alanyl]-oxy-lup-20(29)-ene-28-amide] | – | – | – | – | – | – | did not induce any cytotoxic effect | – | – | – | – | > 40 µM | did not exhibit any potent anti-HIV-1 activity | > 50 µM | – | – | – |
| C=C(C)[C@@H]1CC[C@]2(C(=O)NCCCNC(=O)OC(C)(C)C)CC[C@]3(C)[C@H](CC[C@@H]4[C@@]5(C)CC[C@H](O)C(C)(C)[C@@H]5CC[C@]43C)[C@@H]12 [Compound 7, Tert-butyl-(3-{[(3β)-3-hydroxy-28-oxolup-20(29)-ene-28-yl]amino}propyl)-carbamate] | > 50 µM | 21.3 µM | > 50 µM | 20.7 µM | > 50 µM | 18.4 µM | activity only against selected cell lines | > 50 µM | > 50 µM | > 50 µM | 17.6 µM | > 40 µM | did not exhibit any potent anti-HIV-1 activity | > 50 µM | – | – | – |
| C=C(C)[C@@H]1CC[C@]2(C(=O)NCCCN)CC[C@]3(C)[C@H](CC[C@@H]4[C@@]5(C)CC[C@H](OC(=O)CC(C)(C)C(=O)O)C(C)(C)[C@@H]5CC[C@]43C)[C@@H]12 [Compound 9, 4-{[(3β)-28-[(3-Aminopropyl)amino]-28-oxolup-20(29)-ene-3-yl]oxy}-2,2-dimethyl-4-oxo-butanooic acid hydrochloride] | > 50 µM | > 50 µM | > 50 µM | > 50 µM | 22.5 µM | > 50 µM | inactive | > 50 µM | > 50 µM | > 50 µM | > 50 µM | > 40 µM | – | 14 µM | not only fully processed p24 CA, but also p25 CA-SP1 protein | – | – |
| C=C(C)[C@@H]1CC[C@]2(C(=O)N3CCN(CCNC(=O)OC(C)(C)C)CC3)CC[C@]3(C)[C@H](CC[C@@H]4[C@@]5(C)CC[C@H](O)C(C)(C)[C@@H]5CC[C@]43C)[C@@H]12 [Compound 13, Tert-butyl-(2-{4-[(3β)-3-hydroxy-28-oxolup-20(29)-ene-28-yl]piperazine-1-yl}ethyl)-carbamate] | 5.09 µM | 5.15 µM | 4.99 µM | 5.36 µM | > 50 µM | 4.16 µM | high cytotoxicity | 8.77 µM | 4.76 µM | 6.02 µM | 5.18 µM | > 40 µM | did not exhibit any potent anti-HIV-1 activity | > 50 µM | – | – | – |
| C=C(C)[C@@H]1CC[C@]2(C(=O)N3CCN(CCNC4=C5C=CC=[N+]5[B-](F)(F)n5cccc54)CC3)CC[C@]3(C)[C@H](CC[C@@H]4[C@@]5(C)CC[C@H](O)C(C)(C)[C@@H]5CC[C@]43C)[C@@H]12 [Compound 15, (3β)-28-{4-[N-(4,4-Difluoro-4-bora-3a,4a-diaza-s-indacene-8-yl)-2-aminoethyl]piperazine-1-yl}-3-hydroxylup-20(29)-ene-28-one] | – | – | – | – | – | – | did not induce any cytotoxic effect | – | – | – | – | > 40 µM | did not exhibit any potent anti-HIV-1 activity | > 50 µM | – | – | – |
| C=C(C)[C@@H]1CC[C@]2(C(=O)N3CCN(CCNC(=O)OC(C)(C)C)CC3)CC[C@]3(C)[C@H](CC[C@@H]4[C@@]5(C)CC[C@H](OC(=O)CC(C)(C)C(=O)O)C(C)(C)[C@@H]5CC[C@]43C)[C@@H]12 [Compound 16, 4-{[(3β)-28-(4-{2-[(Tert-butoxycarbonyl)amino]ethyl}piperazine-1-yl)-28-oxolup-20(29)-ene-3-yl]oxy}-2,2-dimethyl-4-oxobutanoic acid] | 47.9 µM | 44.9 µM | 44.8 µM | 47.6 µM | > 50 µM | 44.6 µM | did not induce any cytotoxic effect | > 50 µM | > 50 µM | 46.6 µM | 44.6 µM | > 40 µM | – | < 10 µM | not only fully processed p24 CA, but also p25 CA-SP1 protein | 9.1 µM | – |
| C=C(C)[C@@H]1CC[C@]2(C(=O)N3CCN(CCN)CC3)CC[C@]3(C)[C@H](CC[C@@H]4[C@@]5(C)CC[C@H](OC(=O)CC(C)(C)C(=O)O)C(C)(C)[C@@H]5CC[C@]43C)[C@@H]12 [Compound 17, 4-{[(3β)-28-[4-(2-Aminoethyl)piperazine-1-yl]-28-oxolup-20(29)-ene-3-yl]oxy}-2,2-dimethyl-4-oxobutanoic acid hydrochloride] | > 50 µM | > 50 µM | > 50 µM | > 50 µM | 5.76 µM | 44.6 µM | inactive | > 50 µM | > 50 µM | > 50 µM | > 50 µM | > 40 µM | – | < 10 µM | not only fully processed p24 CA, but also p25 CA-SP1 protein | 7.6 µM | stalled RNA synthesis |
